Each structure is given as a SMILES string.

The subject of this experiment is wild-type IDH1 (αKG) in HT1080 cells. Put plainly: HT1080 cell assay, intracellular αKG. The experiment is classed as cell-based. As to conditions: highest concentration tested shown if curve did not reach 50%.
In turn, `C=CC(=O)N1CCN(C(CC2CC2)c2ccc([C@H](C)Nc3ncc4c(n3)N(C)C(=O)OC4)cc2)CC1` (single isomer, unassigned) [Example 3] had an IC50 of over 0.2 µM.

In turn, `C=CC(=O)N1CCN(C(CC2CC2)c2ccc([C@H](C)Nc3ncc4c(n3)N(C)C(=O)OC4)cc2)CC1` (single isomer, unassigned) [Example 4] yielded an IC50 of over 0.2 µM.

On to `C=CC(=O)N1CCN(C(CC(C)C)c2ccc([C@H](C)Nc3ncc4c(n3)N(CC)C(=O)OC4)cc2)CC1` (single isomer, unassigned) [Example 7], for which the 50% inhibitory concentration (IC50) is over 0.2 µM.

For `C=CC(=O)N1CCN(C(CC(C)C)c2ccc([C@H](C)Nc3ncc4c(n3)N(CC)C(=O)OC4)cc2)CC1` (single isomer, unassigned) [Example 8], the IC50 is over 0.2 µM.

Consider `C=CC(=O)N1CCN(C(CC2CC2)c2ccc([C@H](C)Nc3cc4c(cn3)COC(=O)N4C)cc2)CC1` (single isomer, unassigned) [Example 9], for which the IC50 is over 20 µM.

`C=CC(=O)N1CCN(C(CC2CC2)c2ccc([C@H](C)Nc3cc4c(cn3)COC(=O)N4C)cc2)CC1` (single isomer, unassigned) [Example 10]: the IC50 was over 20 µM.

For `C=CC(=O)N1CCN(C(CC)c2ccc([C@H](C)Nc3ncc4c(n3)N(CC)C(=O)OC4)cc2)CC1` (single isomer, unassigned) [Example 11], the IC50 was over 20 µM.

The molecule `C=CC(=O)N1CCN(C(CC)c2ccc([C@H](C)Nc3ncc4c(n3)N(CC)C(=O)OC4)cc2)CC1` (single isomer, unassigned) [Example 12] yielded an IC50 of over 20 µM.

Turning to `C=CC(=O)N1CCN(C(CCOC)c2ccc([C@H](C)Nc3ncc4c(n3)N(CC)C(=O)OC4)cc2)CC1` (single isomer, unassigned) [Example 13], the IC50 was over 20 µM.

`C=CC(=O)N1CCN(C(CCOC)c2ccc([C@H](C)Nc3ncc4c(n3)N(CC)C(=O)OC4)cc2)CC1` (single isomer, unassigned) [Example 14] had an IC50 of over 20 µM.

A word on the IC50: it is the concentration that inhibits the measured activity by half. Low values mean inhibition by little substance, high ones a need for much substance.

The values above are taken from US11629156B2, “7-phenylethylamino-4H-pyrimido[4,5-d][1,3]oxazin-2-one compounds as mutant IDH1 and IDH2 inhibitors” (Eli Lilly and Company, priority 2016, dated 2023).
